# Data from patent US7473682B2, “Angiogenic peptides and uses thereof” (Ramot at Tel Aviv University Ltd., priority 2003, dated 2009).
# Columns and labels:
# ECs (HUVECs) = experiment: FACS binding of FITC-labeled synthetic peptides to ECs; parameters: species or system human; conditions: 6 μg FITC labeled peptide, 10^5 ECs, 2 hours
# Experimental: Fluorescein labeling of synthetic peptides—Fluorescein Isothiocyanate (FTIC, Pierce, Rockford, Ill.) is an amino-reactive probe that reacts in an alkine environment with primary amines to form a stable fluorescent derivative. 12.5 μl of FITC (10 mg/ml) were added per 1 mg of peptide diluted in 0.5 M bicarbonate buffer (pH 9.5) and agitated in the dark for 2 hours. 0.1 ml of 1.5 M hydroxilamine was then added per 1 ml of reaction mixture and agitated for an additional 30 minutes at room temperature. Unbound FITC was removed by dialysis in the presence of PBS.
# Peptide binding to ECs—ECs were cultured in M199 supplemented with 10% FCS. For peptide binding assays, the cells were trypsinized and 10^5 cells were suspended in PBS supplemented with 5% FCS and 0.1% sodium azide. Cells were incubated for 2 hours (on ice, in the dark) in the presence of 1-6 μg of FITC-labeled peptides, following which the stained cells were washed twice with PBS. Samples were analyzed by FACS (FACScan, Becton Dickinson, San Jose, Calif., USA). For control, 0.5×10^6 of PBLs were utilized.
# FACS analysis of peptide binding to ECs with and without hypoxia treatment—ECs were exposed to hypoxia conditions and then prepared for FACS analysis as described in Example 3, hereinabove. […] Samples were analyzed by Fluorescence Activated Cell Sorter (FACScan Beckton Dickinson, Calif., USA).
# rat ischemic hind limb = experiment: Rat ischemic hind-limb model, laser-Doppler blood flow; type: in vivo; conditions: 600 μg peptide, days 2, 6, 9 and 13
# Experimental: Rat ischemic hind-limb model and laser-Doppler imager analysis—A rat ischeric hind limb model was used for evaluation of the in vivo potential of angiogenesis induced by the selected synthetic peptides. Ischemia was created in the rat left hind limb by ligation the femoral artery. The right hind limb served as a control. A day after the operation each of the peptides was injected into two sites close to the ligation and one site distal to the ligation. Each rat was treated with each of the peptides in a total amount of 600 μg.
# The blood flow was measured using a Laser Doppler Blood Flow analyzer (MoorLDI, Moor Instrument, Wilmington, Del.) at 2, 6, 9 and 13 days after peptides injections. The average perfusion of each limb was computed and blood flow was expressed as the ischemic (left)/control (right) blood flow ratio.
Sequence,Binding to ECs exposed to hypoxia compared with normoxia (ECs (HUVECs)),Median flux of the ischemic leg/control leg (rat ischemic hind limb) [%]
LLADTTHHRPWT (Phage displayed peptide) [LT],increased binding,
QPWLEQAYYSTF (Phage displayed peptide) [QF],,112.5
SAHGTSTGVPWP (Phage displayed peptide),increased binding,
YPHIDSLGHWRR (Phage displayed peptide) [YR],,108.2
